Where a name gives a salt, the structure may show the parent alone.
Assays:
[1] = target: mTOR PI kinase-related kinase (Homo sapiens, UniProt P42345); assay: Test (b) In Vitro mTOR PI Kinase-Related Kinase Assay (AlphaScreen); assay type: biochemical; conditions: read-out: IC50 versus mTOR PI kinase-related kinase
Experimental: The assay used AlphaScreen technology (Gray et al., Analytical Biochemistry, 2003, 313: 234-245) to determine the ability of test compounds to inhibit phosphorylation by recombinant mTOR.
The HEK293 FLAG-tagged mTOR (1362-2549) stable cell line was routinely maintained at 37° C. with 5% CO2 up to a confluency of 70-90% in Dulbecco's modified Eagle's growth medium (DMEM; Invitrogen Limited, Paisley, UK Catalogue No. 41966-029) containing 10% heat-inactivated foetal calf serum (FCS; Sigma, Poole, Dorset, UK, Catalogue No. F0392), 1% L-glutamine (Gibco, Catalogue No. 25030-024) and 2 mg/ml Geneticin (G418 sulphate; Invitrogen Limited, UK Catalogue No. 10131-027). Following expression in the mammalian HEK293 cell line, expressed protein was purified using the FLAG epitope tag using standard purification techniques.
Test compounds were prepared as 10 mM stock solutions in DMSO and diluted into water as required to give a range of final assay concentrations. Aliquots (2 μl) of each compound dilution were placed into a well of a Greiner 384-well low volume (LV) white polystyrene plate (Greiner Bio-one). […]
Each reaction was stopped by the addition of 10 μl of a mixture of EDTA (50 mM), bovine serum albumin (BSA; 0.5 mg/ml) and Tris-HCl pH7.4 buffer (50 mM) containing p70 S6 Kinase (T389) 1A5 Monoclonal Antibody (Cell Signalling Technology, Catalogue No. 9206B) and AlphaScreen Streptavidin donor and Protein A acceptor beads (200 ng; Perkin Elmer, Catalogue No. 6760002B and 6760137R respectively) were added and the assay plates were left for about 20 hours at room temperature in the dark. The resultant signals arising from laser light excitation at 680 nm were read using a Packard Envision instrument.
Phosphorylated biotinylated peptide is formed in situ as a result of mTOR mediated phosphorylation. […] Upon laser light excitation at 680 nm, the donor bead: acceptor bead complex produces a signal that can be measured. […]
mTOR enzyme inhibition for a given test compound was expressed as an IC50 value.

[2] = test system: phosphorylation of Serine 473 in Akt (MDA-MB-468 cells); assay: Test (c) In Vitro phospho-Ser473 Akt Assay; assay type: cell-based; conditions: Homo sapiens, read-out: IC50 versus Serine 473 in Akt
Experimental: This assay determines the ability of test compounds to inhibit phosphorylation of Serine 473 in Akt as assessed using Acumen Explorer technology (Acumen Bioscience Limited), a plate reader that can be used to rapidly quantitate features of images generated by laser-scanning.
A MDA-MB-468 human breast adenocarcinoma cell line (LGC Promochem, Teddington, Middlesex, UK, Catalogue No. HTB-132) was routinely maintained at 37° C. with 5% CO2 up to a confluency of 70-90% in DMEM containing 10% heat-inactivated FCS and 1% L-glutamine.
For the assay, the cells were detached from the culture flask using ‘Accutase’ (Innovative Cell Technologies Inc., San Diego, Calif., USA; Catalogue No. AT104) using standard tissue culture methods and resuspended in media to give 1.7×10^5 cells per ml. Aliquots (90 μl) were seeded into each of the inner 60 wells of a black Packard 96 well plate (PerkinElmer, Boston, Mass., USA; Catalogue No. 6005182) to give a density of ˜15000 cells per well. Aliquots (90 μl) of culture media were placed in the outer wells to prevent edge effects. The cells were incubated overnight at 37° C. with 5% CO2 to allow them to adhere.
On day 2, the cells were treated with test compounds and incubated for 2 hours at 37° C. with 5% CO2. Test compounds were prepared as 10 mM stock solutions in DMSO and serially diluted as required with growth media to give a range of concentrations that were 10-fold the required final test concentrations. Aliquots (10 μl) of each compound dilution were placed in a well (in triplicate) to give the final required concentrations. As a minimum response control, each plate contained wells having a final concentration of 100 μM LY294002 (Calbiochem, Beeston, UK, Catalogue No. 440202). As a maximum response control, wells contained 1% DMSO instead of test compound. Following incubation, the contents of the plates were […] by treatment with a 1.6% aqueous formaldehyde solution (Sigma, Poole, Dorset, UK, Catalogue No. F1635) at room temperature for 1 hour.
All subsequent aspiration and wash steps were carried out using a Tecan 96 well late washer (aspiration speed 10 mm/sec). The fixing solution was removed and the contents of the plates were washed with phosphate-buffered saline (PBS; 50 μl; Gibco, Catalogue No. 10010015). The contents of the plates were treated for 10 minutes at room temperature with an aliquot (50 μl) of a cell permeabilisation buffer consisting of a mixture of PBS and 0.5% Tween-20. […] An aliquot of PBS (50 μl) was added to each well and the plates were sealed with black plate sealers and the fluorescence signal was detected and analysed.
Fluorescence dose response data obtained with each compound were analysed and the degree of inhibition of Serine 473 in Akt was expressed as an IC50 value.

Chain of mTOR PI kinase-related kinase (P42345 1362-2549): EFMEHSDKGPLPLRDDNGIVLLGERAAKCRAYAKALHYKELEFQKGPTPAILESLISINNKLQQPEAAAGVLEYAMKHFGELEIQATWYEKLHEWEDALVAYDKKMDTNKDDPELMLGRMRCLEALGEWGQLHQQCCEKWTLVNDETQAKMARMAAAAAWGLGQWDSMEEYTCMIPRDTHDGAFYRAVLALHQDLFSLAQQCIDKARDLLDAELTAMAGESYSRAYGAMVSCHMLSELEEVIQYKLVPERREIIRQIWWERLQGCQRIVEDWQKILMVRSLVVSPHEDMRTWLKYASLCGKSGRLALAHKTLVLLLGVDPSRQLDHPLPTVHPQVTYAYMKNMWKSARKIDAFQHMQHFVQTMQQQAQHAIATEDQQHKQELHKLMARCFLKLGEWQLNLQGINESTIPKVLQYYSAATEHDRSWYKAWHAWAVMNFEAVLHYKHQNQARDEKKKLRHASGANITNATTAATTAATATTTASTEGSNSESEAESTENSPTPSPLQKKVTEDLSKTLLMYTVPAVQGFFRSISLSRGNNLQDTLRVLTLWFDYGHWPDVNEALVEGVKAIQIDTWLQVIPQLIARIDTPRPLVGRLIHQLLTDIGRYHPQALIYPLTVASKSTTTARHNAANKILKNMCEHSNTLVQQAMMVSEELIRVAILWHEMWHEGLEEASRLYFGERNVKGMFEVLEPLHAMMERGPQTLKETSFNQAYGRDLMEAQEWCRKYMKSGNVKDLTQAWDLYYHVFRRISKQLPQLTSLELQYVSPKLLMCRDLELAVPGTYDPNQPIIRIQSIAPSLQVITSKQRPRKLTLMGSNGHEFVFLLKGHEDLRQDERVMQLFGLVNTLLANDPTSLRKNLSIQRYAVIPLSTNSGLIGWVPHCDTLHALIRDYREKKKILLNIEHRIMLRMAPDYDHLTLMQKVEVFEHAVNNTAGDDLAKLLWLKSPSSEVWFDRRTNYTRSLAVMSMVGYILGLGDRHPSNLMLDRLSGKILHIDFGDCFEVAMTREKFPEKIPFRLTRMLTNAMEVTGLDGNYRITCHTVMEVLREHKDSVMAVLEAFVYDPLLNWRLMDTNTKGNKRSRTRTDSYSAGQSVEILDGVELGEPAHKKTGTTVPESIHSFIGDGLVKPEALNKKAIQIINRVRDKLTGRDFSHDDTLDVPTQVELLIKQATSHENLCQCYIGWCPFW

| IC50 [1] [nM] | IC50 [2] [nM] | SMILES |
| --- | --- | --- |
| ~2000 | ~200 | CC(=O)Nc1nc(C)c(-c2cnc(Cl)c(NCc3ccc(F)cc3)c2)s1 [Compound No. 3 within Example 79, N-{5-[6-Chloro-5-(4-fluorobenzylamino)pyridin-3-yl]-4-methyl-1,3-thiazol-2-yl}acetamide] |
| ~20 | ~300 | CC(=O)Nc1nc(C)c(-c2cnc(Cl)c(NS(C)(=O)=O)c2)s1 [Example 28, N-[5-(6-Chloro-5-methylsulfonylaminopyridin-3-yl)-4-methyl-1,3-thiazol-2-yl]acetamide trifluoroacetate] |
| ~700 | ~200 | CC(=O)Nc1nc(C)c(-c2cnc(Cl)c(S(=O)(=O)Nc3ccccc3)c2)s1 [Compound No. 4 within Example 73, N-{5-[6-Chloro-5-(N-phenylsulfamoyl)pyridin-3-yl]-4-methyl-1,3-thiazol-2-yl]acetamide] |

Reference: patent US7868188B2, “5-heteroaryl thiazoles and their use as PI3K inhibitors” (AstraZeneca AB, priority 2004, dated 2011)
